The test system of assay [1] is Penicillium oryzae (ATCC 1109). Description: Oxford Cup method antifungal test, Penicillium citrinum. In kind it is cell-based, Penicillium citrinum (ATCC1109). Here is the method:
(§1) Preparation of the test sample solution: The test sample was the pure compound I separated and purified in the above Example 1. An appropriate amount of sample was accurately weighed and mixed with DMSO to obtain a solution of the required concentration for testing the antifungal activity. The indicator bacteria used in this experiment were Botrytis cinerea (CGMCC3.3789) and Penicillium citrinum (ATCC1109).
(§2) Oxford Cup method for antifungal test: 100 μL of spore suspension was spread evenly on PDA plates, and Oxford cups were placed in the center of the plates. 100 μL of compound solutions of different concentrations were added into the Oxford cups separately, the concentrations of the compound solutions were 32 μg/mL, 16 μg/mL, 8 μg/mL, 4 μg/mL, 2 μg/mL, 1 μg/mL, and 0.5 μg/mL. DMSO was used as a negative control, and prochloraz of the same concentration was used as a positive control. After incubation at 28° C. for 5 days, the growth of fungi was observed. Four culture plates were set up for each treatment, and the whole experiment was repeated three times.

A short description of assay [2]: Oxford Cup method antifungal test, Botrytis cinerea. Format: cell-based, Botrytis cinerea (CGMCC3.3789). Conditions: Staphylococcus, CGMCC3, 120 h; Oxford Cup method, PDA plates, 28° C., 5 days; strain CGMCC 3.3789; read-out: minimum inhibitory concentration (MIC). As to the method: as §1, §2
Assay [3] deals with Staphylococcus griseus (CGMCC 3.3789). The description is as above. In kind it is cell-based, Botrytis cinerea (CGMCC3.3789). The settings on record: result in words. Here is the method: as §1, §2

In brackets after ≈: the same amount, converted by molar mass.

For the compound `CC[C@@H](C)C[C@H]1C(=O)O[C@H](C)[C@H](NC(=O)c2cccc(NC=O)c2O)C(=O)O[C@@H](C)[C@@H]1CC(=O)C(C)C` [Compound I, Antimycin I], the MIC in assay [1] (Penicillium, ATCC1109, 120 h, Oxford Cup method, PDA plates, 28° C., 5 days, strain ATCC 1109, read-out: minimum inhibitory concentration (MIC)) was determined as 4 µg/mL (≈ 7.71 µM); in assay [2] it was 2 µg/mL (≈ 3.86 µM). The “resistance activity against Penicillium citrinum (antifungal activity screening)” value in assay [1] (result in words) was “significant resistance activity”. For the same compound, the “resistance activity against Botrytis cinerea (antifungal activity screening)” value in assay [3] is “significant resistance activity”.

The record behind these values is patent US11851692B2, “Method for preparing an antimycin compound produced by Streptomyces sp.4-7” (priority 2022, dated 2023).
